For assay [1], the target named is T1, PpADK1 (Physcomitrium patens, UniProt O49923).
T1 construct: made in house; host or cells: E. coli T7 Express Iq
As to the kind of experiment: ADK activity, coupled reaction with PK and LDH. The format is biochemical, Physcomitrella patens. To be noted: 100 µM substrate, 10 mM ATP, pH 7.5, 30 °C. As to the method: (§1) Substrate analogs were purchased from Sigma-Aldrich (www.sigmaaldrich.com). The ADK activity was measured spectrophotometrically on an Agilent 8453 UV-Vis spectrophotometer (www.agilent.com) at 30 °C using a coupled reaction with pyruvate kinase (PK) and lactate dehydrogenase (LDH) (www.sigmaaldrich.com) ([Blondin et al., 1994]). In this assay, PK converts ADP produced by ADK and phosphoenolpyruvate (PEP) to pyruvate. Subsequently, LDH then converts pyruvate to lactate using the coenzyme NADH, with the conversion monitored at 340 nm. The reaction was conducted in 50 mM Tris–HCl buffer at pH 7.5, containing 50 mM KCl, 6 mM MgCl2, 300 µM PEP, 200 µM NADH, 10 mM ATP, 2 U of PK, and 2.5 U of LDH, using various nucleoside substrates. Kinetic constants were determined using GraphPad Prism 8.0 software (www.graphpad.com). Each measurement was performed six times using repetitive purified enzymes. The activities of all five ADKs were also measured by HPLC ([Moffatt et al., 1991]). The reaction mixture comprised 50 mM Tris–HCl pH 7.5, 5 mM MgCl2, 0.5 mM DTT, 30 mM NaF, 5 mM ATP, 40 µM substrate, and 2–150 ng of purified ADK, depending on the isoform. The reaction was incubated at 30 °C for up to 1 h. […] Similarly, the conversion of cytokinin ribosides to monophosphates was followed on a LiChrosphere 60 RP-Select B (5 µm) LiChroCART column 125-4 column equilibrated with 10 mM triethylamine at pH 5.4 plus 10% methanol, and stepwise eluted with 100% methanol.

Assay [2] has as its target T1, PpADK1. In words: Binding affinity by microscale thermophoresis (MST). The arrangement: species or system Physcomitrella patens. To be noted: 50 mM HEPES pH 7.5, 1 mM MgCl2, first or only binding event, read-out: KD. As to the method:
(§2) The microscale thermophoresis (MST) method was used to determine the binding affinity of various ribosides for ZmADK2 and PpADK1. Proteins were fluorescently labeled with RED-tris-NTA dye (www.nanotemper-technologies.com) using a 1:1 dye/protein molar ratio. The labeled protein was adjusted to 100–300 nM in 50 mM HEPES buffer pH 7.5, 1 mM MgCl2, and 0.2% Tween. Measurements were performed in premium capillaries on a Monolith NT.115 instrument at 30 °C with 5 s/30 s/5 s laser off/on/off times, respectively, with continuous sample fluorescence recording. Thermal stability was measured by nano-differential scanning fluorimetry on a Prometheus NT.48 instrument (www.nanotemper-technologies.com) in various buffers covering a pH (7.0–9.5) and temperature range (25–95 °C), with a heating rate of 1 °C min^–1, and using NT melting control software. Protein unfolding was measured by detecting the temperature-induced change in tryptophan fluorescence intensity at emission wavelengths of 330±5 nm and 350±5 nm. The melting temperature (Tm) was deduced from the maximum of the first derivative of the fluorescence ratios F350/F330.
(In general: MST reads how a fluorescent partner responds to local heating, with and without ligand.)

The target in a further assay is ZmADK2 (Zea mays, UniProt B4FFH8, T4S). In words: ADK activity, coupled reaction with PK and LDH. The format is biochemical. The following applies: ZmADK2; 100 µM substrate; 10 mM ATP; pH 7.5; 30 °C. The protocol:
as §1

A further assay deals with ZmADK2 and PpADK1. As to the kind of experiment: Binding affinity by MST (summary for both enzymes). The arrangement: species or system Zea mays, Physcomitrella patens. The following applies: range over ZmADK2 and PpADK1. As to the method: as §2
The next assay concerns the target ZmADK3 (Zea mays, UniProt A0A1D6E5Z5). In words: ADK activity, coupled reaction with PK and LDH. In kind it is biochemical. As to the method: Substrate analogs were purchased from Sigma-Aldrich (www.sigmaaldrich.com). […] In this assay, PK converts ADP produced by ADK and phosphoenolpyruvate (PEP) to pyruvate. Subsequently, LDH then converts pyruvate to lactate using the coenzyme NADH, with the conversion monitored at 340 nm. The reaction was conducted in 50 mM Tris–HCl buffer at pH 7.5, containing 50 mM KCl, 6 mM MgCl2, 300 µM PEP, 200 µM NADH, 10 mM ATP, 2 U of PK, and 2.5 U of LDH, using various nucleoside substrates. Kinetic constants were determined using GraphPad Prism 8.0 software (www.graphpad.com). Each measurement was performed six times using repetitive purified enzymes. […] The reaction mixture comprised 50 mM Tris–HCl pH 7.5, 5 mM MgCl2, 0.5 mM DTT, 30 mM NaF, 5 mM ATP, 40 µM substrate, and 2–150 ng of purified ADK, depending on the isoform. The reaction was incubated at 30 °C for up to 1 h.

For another assay, the target named is WT ZmADK3 (Zea mays, UniProt A0A1D6E5Z5). In words: Binding affinity by MST.
WT ZmADK3, sequence (A0A1D6E5Z5 2-344): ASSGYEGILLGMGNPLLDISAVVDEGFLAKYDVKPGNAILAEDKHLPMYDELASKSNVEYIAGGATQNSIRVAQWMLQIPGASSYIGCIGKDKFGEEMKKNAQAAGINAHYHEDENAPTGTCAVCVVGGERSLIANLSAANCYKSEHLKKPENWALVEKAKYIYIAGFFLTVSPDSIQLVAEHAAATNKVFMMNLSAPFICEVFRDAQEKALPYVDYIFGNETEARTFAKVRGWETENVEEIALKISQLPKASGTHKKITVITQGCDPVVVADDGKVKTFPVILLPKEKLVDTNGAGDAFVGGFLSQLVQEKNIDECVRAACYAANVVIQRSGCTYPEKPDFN

ZmADK3, sequence (A0A1D6E5Z5 entry or part of it): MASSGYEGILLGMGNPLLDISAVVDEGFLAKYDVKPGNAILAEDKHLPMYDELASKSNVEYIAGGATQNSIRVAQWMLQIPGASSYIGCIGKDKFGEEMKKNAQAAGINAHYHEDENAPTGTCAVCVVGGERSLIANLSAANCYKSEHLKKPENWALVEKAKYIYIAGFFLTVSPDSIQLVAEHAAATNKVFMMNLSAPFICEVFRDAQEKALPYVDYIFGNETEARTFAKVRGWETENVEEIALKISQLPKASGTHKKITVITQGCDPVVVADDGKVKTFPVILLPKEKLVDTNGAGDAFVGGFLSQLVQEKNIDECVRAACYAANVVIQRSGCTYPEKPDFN
T1 sequence (O49923 whole entry): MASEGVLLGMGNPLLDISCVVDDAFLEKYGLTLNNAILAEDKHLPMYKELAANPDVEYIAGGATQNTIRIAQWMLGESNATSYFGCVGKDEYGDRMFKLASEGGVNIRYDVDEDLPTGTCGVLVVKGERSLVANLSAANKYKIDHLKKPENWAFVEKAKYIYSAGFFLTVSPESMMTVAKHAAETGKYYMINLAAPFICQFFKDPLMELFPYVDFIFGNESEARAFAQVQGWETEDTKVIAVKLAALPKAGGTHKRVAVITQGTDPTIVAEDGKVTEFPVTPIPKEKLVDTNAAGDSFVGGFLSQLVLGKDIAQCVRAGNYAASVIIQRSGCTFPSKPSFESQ
ZmADK2, sequence (B4FFH8 1-342 T4S): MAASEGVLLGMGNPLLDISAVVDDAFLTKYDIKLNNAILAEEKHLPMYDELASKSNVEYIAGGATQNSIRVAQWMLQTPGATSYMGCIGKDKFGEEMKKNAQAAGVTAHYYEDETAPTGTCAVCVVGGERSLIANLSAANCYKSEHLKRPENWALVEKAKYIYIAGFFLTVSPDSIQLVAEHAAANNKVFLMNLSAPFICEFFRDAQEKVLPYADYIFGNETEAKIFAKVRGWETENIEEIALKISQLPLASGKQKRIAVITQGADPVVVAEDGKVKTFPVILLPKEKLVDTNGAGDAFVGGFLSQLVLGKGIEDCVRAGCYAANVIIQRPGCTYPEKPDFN

As usually defined, the Kd is the free concentration of one partner at which half of the binding sites on the other are occupied at equilibrium, for simple one-to-one binding. As to `Nc1ncnc2c1ncn2[C@@H]1O[C@H](CO)[C@@H](O)[C@H]1O` [Ado, adenosine], the Specific activity on PpADK1 [1] turned out to be 5.09±0.26 nmol s^–1 mg^–1; on ZmADK2, 40.3±1.4 nmol s^–1 mg^–1; on ZmADK3 (WT ZmADK3, 100 µM Ado, 10 mM ATP, 30 °C), 31.0±0.8 nkat mg^–1; at ZmADK3 (ZmADK3, 100 µM substrate, 10 mM ATP, pH 7.5, 30 °C), 30.0±1.1 nmol s^–1 mg^–1. Besides, the Kd on PpADK1 [2] is 700 nM; at ZmADK2 and PpADK1 it was 400 to 700 nM; on WT ZmADK3, 280 ± 50 nM. The Relative rate at ZmADK3 (WT ZmADK3, 100 µM Ado, relative to WT) came to 100.0%. For the same compound, at ZmADK3 (ZmADK3, 10 mM ATP, pH 7.5, 30 °C), the kcat stood at 1.18±0.03 s^–1.

The record behind these values is article PMC12369479 (Journal of Experimental Botany, 2025).
